Counter-ions that a name gives are not always drawn.
Tested on: male rabbits (New Zealand White)
Assay: Ocular tolerability (Draize) after repeated instillation
Type: in vivo, rabbit
Conditions: for Conjunctiva Lachrymation / Conjunctiva Reddening / Conjunctiva Swelling / Cornea Area of the cornea affected by opacity / Cornea Opacity / Iris: Draize score; for Conjunctiva Lachrymation / Conjunctiva Reddening / Conjunctiva Swelling / Cornea Area of the cornea affected by opacity / Cornea Opacity / Iris / Total Score: rabbit eye, 0.1 ml aqueous solution (corresponding to 1.79% by weight of ibopamine, pH 7.0) three times a day for fifteen days; for local tolerability: compared with the hydrochloride, statement in words; for Total Score: sum of Draize scores
Method: Two aqueous solutions were used.
The first contained 2% by weight of ibopamine hydrochloride (corresponding to 1.79% by weight of ibopamine) buffered to pH 7.0.
The second contained 2.46% by weight of ibopamine maleate (corresponding to 1.79% by weight of ibopamine) buffered to pH 7.0.
12 male rabbits (New Zealand White) with an average weight of 2 kg and an average age of ten months were used, divided into two groups of six rabbits each. The first group was treated with 0.1 ml of the first test solution three times a day for fifteen days. The second group was treated with 0.1 ml of the second test solution three times a day for fifteen days.
The tolerability was evaluated according to J. Draize et al., Pharmacol. Exp. Ther., 83, 377-390 (1944).

Row | Molecule | Conjunctiva Lachrymation | Conjunctiva Reddening | Conjunctiva Swelling | Cornea Area of the cornea affected by opacity | Cornea Opacity | Iris | local tolerability (listed as ibopamine maleate) | local tolerability (listed as maleate) | Total Score
1 | ibopamine maleate (1:1) | 1 | 1 | 0 | 1 | 0 | 0 | better local tolerability | better local tolerability than the hydrochloride | 3
2 | CNCCc1ccc(OC(=O)C(C)C)c(OC(=O)C(C)C)c1 [Ibopamine hydrochloride, ibopamine hydrochloride, reference compound] | 2 | 1 | 1 | 2 | 1 | 1 |  |  | 8

— US20080242724A1, “Ibopamine Maleate, Method for Preparing it and Pharmaceutical Compositions Containing It” (AZIENDE CHIM. RIUN. ANG. FRANC. A.C.R.A.F. S.P.A., priority 2004, published 2008)
